Assay results published in ChEMBL document CHEMBL1143338, “Design of beta-hairpin peptides for modulation of cell adhesion by beta-turn constraint” (J Med Chem, 2009).
Positions of bridges follow the written chain, without caps; N, C: chain ends. Residues, ends and D or L forms follow the SMILES beside them.

Tests used:
Type in all cases: cell-based
Jurkat = test: Inhibition of CD2-CD58 interaction assessed as inhibition of CD2 expressing human Jurkat T cell to CD58 expressing sheep RBC adhesion-associated E-rosette formation at 180 uM after 45 mins by microplate fluorescence analysis
[1] = Cytotoxicity against human Caco-2 cells assessed as cell viability at 180 uM after 2 hrs by MTT assay; settings: read-out: Activity
[2] = biological target: T1, T-cell surface antigen CD2 (Homo sapiens) (UniProt P06729); test: Inhibition of CD2-CD58 interaction assessed as inhibition of CD2 expressing human Jurkat T cell adhesion to CD58 expressing human Caco-2 cells after 45 mins by microplate fluorescence analysis relative to control
T1 sequence (whole entry): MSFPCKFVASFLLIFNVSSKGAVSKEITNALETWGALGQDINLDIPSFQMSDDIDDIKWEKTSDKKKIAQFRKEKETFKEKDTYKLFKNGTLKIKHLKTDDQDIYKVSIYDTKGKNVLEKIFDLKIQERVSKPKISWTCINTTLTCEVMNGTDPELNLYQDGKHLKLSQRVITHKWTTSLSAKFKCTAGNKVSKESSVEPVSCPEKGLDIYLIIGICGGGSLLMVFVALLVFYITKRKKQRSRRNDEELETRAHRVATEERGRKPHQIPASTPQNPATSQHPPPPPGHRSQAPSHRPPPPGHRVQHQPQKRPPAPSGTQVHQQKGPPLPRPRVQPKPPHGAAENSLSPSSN

[3] = biological target: T2, Lymphocyte function-associated antigen 3 (Homo sapiens) (UniProt P19256); test: Inhibition of antiCD58-FITC binding to CD58 in human Caco-2 cells at 180 uM after 1 hr by fluorescence analysis relative to control
T2 sequence (whole entry): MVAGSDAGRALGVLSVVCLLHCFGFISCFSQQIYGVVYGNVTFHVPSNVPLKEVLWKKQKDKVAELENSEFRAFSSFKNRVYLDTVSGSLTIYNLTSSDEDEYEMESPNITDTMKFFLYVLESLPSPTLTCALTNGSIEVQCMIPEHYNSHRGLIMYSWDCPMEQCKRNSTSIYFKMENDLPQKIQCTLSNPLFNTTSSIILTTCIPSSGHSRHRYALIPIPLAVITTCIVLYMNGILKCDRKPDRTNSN

[4] = biological target: T1, T-cell surface antigen CD2 (Homo sapiens); test: Inhibition of CD2-CD58 interaction assessed as inhibition of CD2 expressing human Jurkat T cell adhesion to CD58 expressing human Caco-2 cells at 90 uM after 45 mins by microplate fluorescence analysis

| SMILES | inhibition (Jurkat) | viability at 2 h, 180 µM [1] | Activity [2] | inhibition [3] | inhibition [4] |
| --- | --- | --- | --- | --- | --- |
| CC[C@H](C)[C@@H]1NC(=O)[C@H](CC(=O)O)NC(=O)[C@H](CC(=O)O)NC(=O)CNC(=O)[C@@H]2CCCN2C(=O)[C@H](CC(=O)O)NC(=O)[C@H](Cc2ccc(O)cc2)NC(=O)[C@H]([C@@H](C)CC)NC(=O)[C@H](CO)NC(=O)[C@@H](N)CCC(=O)NCCCC[C@@H](C(=O)O)NC1=O (H-ESIYDPGDDIK-OH; lactam 1-11) | 60% | > 80% | Dose-dependent effect | 45% | 80% |
| CC[C@H](C)[C@@H]1NC(=O)[C@H](CC(=O)O)NC(=O)[C@H](CC(=O)O)NC(=O)CNC(=O)[C@@H]2CCCN2C(=O)[C@H](CC(=O)O)NC(=O)[C@H](Cc2ccc(O)cc2)NC(=O)[C@H]([C@@H](C)CC)NC(=O)[C@H](CCC(=O)O)NC(=O)[C@H](CCCCN)NC1=O |  | > 80% |  |  |  |
| CC[C@H](C)[C@@H]1NC(=O)[C@H](CO)NC(=O)[C@@H](N)C(C)(C)SSC[C@@H](C(=O)O)NC(=O)[C@@H](CCCCN)NC(=O)[C@H]([C@@H](C)CC)NC(=O)[C@H](CC(=O)O)NC(=O)[C@H](CC(=O)O)NC(=O)CNC(=O)[C@@H]2CCCN2C(=O)[C@H](CC(=O)O)NC(=O)[C@H](Cc2ccc(O)cc2)NC1=O | 20% | > 80% |  |  | 30% |
| CC[C@H](C)[C@@H]1NC(=O)[C@H](CC(=O)O)NC(=O)[C@@H](CC(=O)O)NC(=O)CNC(=O)[C@@H]2CCCN2C(=O)[C@H](CC(=O)O)NC(=O)[C@H](Cc2ccc(O)cc2)NC(=O)[C@H]([C@@H](C)CC)NC(=O)[C@H](CCC(=O)O)NC(=O)[C@H](CCCCN)NC1=O | 60% |  | Dose-dependent effect |  | 80% |
| CC[C@H](C)[C@@H]1NC(=O)[C@H](CC(=O)O)NC(=O)[C@H](CC(=O)O)NC(=O)CNC(=O)[C@@H]2CCCN2C(=O)[C@H](CC(=O)O)NC(=O)[C@H](Cc2ccc(O)cc2)NC(=O)[C@H]([C@@H](C)CC)NC(=O)[C@@H](N)CCC(=O)NCCCC[C@@H](C(=O)O)NC1=O (H-EIYDPGDDIK-OH; lactam 1-10) | 50% | > 80% | Dose-dependent effect |  | 80% |
